Measurements as given in ChEMBL document CHEMBL1909046, “DrugMatrix in vitro pharmacology data”.

How the values were obtained:
Estrogen receptor beta = Estrogen receptor beta (Homo sapiens, UniProt Q92731); settings: sf9; note: in other assays of this panel Not Active means under 50% inhibition at 10 µM
[1] = molecular target: T1, Alpha-2C adrenergic receptor (Homo sapiens, UniProt P18825); test: DRUGMATRIX: Adrenergic Alpha-2C radioligand binding (ligand: [3H] MK-912); type: cell membranes, Sf9, Membrane; settings: sf9
T1 sequence (P18825 whole entry): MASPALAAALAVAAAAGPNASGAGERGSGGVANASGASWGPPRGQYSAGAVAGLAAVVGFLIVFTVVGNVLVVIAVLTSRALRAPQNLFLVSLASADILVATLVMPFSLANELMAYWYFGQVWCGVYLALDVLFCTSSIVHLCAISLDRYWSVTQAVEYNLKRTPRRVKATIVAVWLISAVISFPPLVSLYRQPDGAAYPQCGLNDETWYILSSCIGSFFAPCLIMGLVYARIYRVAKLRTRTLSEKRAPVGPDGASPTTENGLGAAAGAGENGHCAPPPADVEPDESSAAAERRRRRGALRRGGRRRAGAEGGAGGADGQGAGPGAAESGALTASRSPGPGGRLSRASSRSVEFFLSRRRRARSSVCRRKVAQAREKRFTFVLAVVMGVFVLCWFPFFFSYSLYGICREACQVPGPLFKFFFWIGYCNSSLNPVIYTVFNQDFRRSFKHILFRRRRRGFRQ

Cytochrome P450 2C19 = Cytochrome P450 2C19 (Homo sapiens, UniProt P33261); settings: bti-tn-5b1-4; note: in other assays of this panel Not Active means under 50% inhibition at 10 µM
[2] = molecular target: T2, Cholecystokinin receptor type A (Homo sapiens, UniProt P32238); type: cell membranes, Membrane; settings: 1321-n1; note: in other assays of this panel Not Active means under 50% inhibition at 10 µM
T2 sequence (P32238 whole entry): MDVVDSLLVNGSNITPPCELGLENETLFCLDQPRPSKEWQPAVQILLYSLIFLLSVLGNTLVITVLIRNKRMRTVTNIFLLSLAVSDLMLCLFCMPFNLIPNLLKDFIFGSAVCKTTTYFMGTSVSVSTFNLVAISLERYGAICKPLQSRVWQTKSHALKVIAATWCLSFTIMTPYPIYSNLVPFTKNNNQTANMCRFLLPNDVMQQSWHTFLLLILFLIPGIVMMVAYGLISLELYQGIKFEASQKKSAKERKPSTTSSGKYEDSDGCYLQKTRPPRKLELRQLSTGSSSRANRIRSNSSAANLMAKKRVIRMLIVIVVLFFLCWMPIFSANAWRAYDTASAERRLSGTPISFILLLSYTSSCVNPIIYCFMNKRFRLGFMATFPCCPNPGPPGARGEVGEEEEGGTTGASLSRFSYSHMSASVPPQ

[3] = DRUGMATRIX: Phosphodiesterase PDE4 enzyme inhibition (substrate: [3H]cAMP + cAMP); settings: u-937, Not Active = under 50% inhibition at 10 µM
[4] = DRUGMATRIX: Glutamate, NMDA, Agonism radioligand binding (ligand: [3H] CGP-39653); type: cell membranes, Rattus norvegicus, Wistar, Cerebral cortex, Membrane; settings: Not Active = under 50% inhibition at 10 µM
D(3) dopamine receptor = D(3) dopamine receptor (Homo sapiens, UniProt P35462); test: DRUGMATRIX: Dopamine D3 radioligand binding (ligand: [3H] Spiperone); type: cell membranes, CHO, Membrane; settings: for Ki: read-out: Ki
D(3) dopamine receptor, sequence (P35462 whole entry): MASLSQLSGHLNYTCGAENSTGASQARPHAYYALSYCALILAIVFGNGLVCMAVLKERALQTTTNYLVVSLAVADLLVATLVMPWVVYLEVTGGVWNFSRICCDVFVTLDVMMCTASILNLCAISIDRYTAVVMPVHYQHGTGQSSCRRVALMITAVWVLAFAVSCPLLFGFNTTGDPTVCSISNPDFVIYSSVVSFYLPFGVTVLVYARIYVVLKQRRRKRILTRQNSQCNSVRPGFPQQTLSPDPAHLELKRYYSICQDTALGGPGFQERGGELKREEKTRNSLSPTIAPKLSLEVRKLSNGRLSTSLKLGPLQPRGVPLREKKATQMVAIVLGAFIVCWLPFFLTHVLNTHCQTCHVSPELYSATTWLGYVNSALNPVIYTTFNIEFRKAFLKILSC

Estrogen receptor beta, sequence (Q92731 whole entry): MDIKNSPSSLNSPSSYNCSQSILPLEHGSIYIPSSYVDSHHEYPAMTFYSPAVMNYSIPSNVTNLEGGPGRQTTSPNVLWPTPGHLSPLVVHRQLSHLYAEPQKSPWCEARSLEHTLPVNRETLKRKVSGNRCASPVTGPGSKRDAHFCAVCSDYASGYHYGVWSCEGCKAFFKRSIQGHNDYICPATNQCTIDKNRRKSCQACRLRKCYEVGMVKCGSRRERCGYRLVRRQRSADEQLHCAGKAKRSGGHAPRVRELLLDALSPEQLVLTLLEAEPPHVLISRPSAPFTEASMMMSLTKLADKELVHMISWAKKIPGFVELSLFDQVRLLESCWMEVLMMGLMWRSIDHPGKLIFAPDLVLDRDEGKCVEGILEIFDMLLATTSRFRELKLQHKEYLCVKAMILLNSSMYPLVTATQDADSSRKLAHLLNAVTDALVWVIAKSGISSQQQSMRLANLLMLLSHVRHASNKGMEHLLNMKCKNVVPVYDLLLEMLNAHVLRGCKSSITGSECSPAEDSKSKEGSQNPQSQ
Cytochrome P450 2C19, sequence (P33261 whole entry): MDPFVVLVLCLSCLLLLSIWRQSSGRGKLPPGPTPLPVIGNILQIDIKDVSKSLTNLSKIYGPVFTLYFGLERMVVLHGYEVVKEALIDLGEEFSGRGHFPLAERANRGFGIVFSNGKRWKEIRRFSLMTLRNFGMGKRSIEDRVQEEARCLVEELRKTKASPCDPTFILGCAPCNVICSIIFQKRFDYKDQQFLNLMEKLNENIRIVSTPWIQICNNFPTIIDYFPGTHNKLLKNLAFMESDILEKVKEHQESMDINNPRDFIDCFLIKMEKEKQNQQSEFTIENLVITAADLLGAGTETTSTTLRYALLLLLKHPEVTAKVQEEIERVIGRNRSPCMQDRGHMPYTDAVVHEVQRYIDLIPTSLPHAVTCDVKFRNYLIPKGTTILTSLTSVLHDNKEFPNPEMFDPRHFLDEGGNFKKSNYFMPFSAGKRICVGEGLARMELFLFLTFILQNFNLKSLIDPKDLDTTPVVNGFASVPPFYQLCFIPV

| SMILES | IC50 (Estrogen receptor beta) | IC50 [1] | IC50 (Cytochrome P450 2C19) | Ki (Cytochrome P450 2C19) | IC50 [2] | IC50 [3] | Ki [3] | IC50 [4] | Ki [4] | IC50 (D(3) dopamine receptor; cho) | IC50 ([3]; read-out: IC50) | IC50 (D(3) dopamine receptor; read-out: IC50) | Ki (D(3) dopamine receptor) |
| --- | --- | --- | --- | --- | --- | --- | --- | --- | --- | --- | --- | --- | --- |
| CC(C)(C)NC(=O)[C@@H]1C[C@@H]2CCCC[C@@H]2CN1C[C@@H](O)[C@H](Cc1ccccc1)NC(=O)[C@H](CC(N)=O)NC(=O)c1ccc2ccccc2n1 | Not Active | Not Active | Not Active | Not Active | Not Active | Not Active | Not Active | Not Active | Not Active | – | – | – | – |
| CC(=O)[C@@]1(O)CC[C@H]2[C@@H]3C[C@H](C)C4=CC(=O)CC[C@]4(C)[C@H]3CC[C@@]21C | Not Active | Not Active | – | – | Not Active | Not Active | Not Active | Not Active | Not Active | Not Active | – | – | – |
| N[C@@H](Cc1ccc(N(CCCl)CCCl)cc1)C(=O)O | Not Active | Not Active | Not Active | Not Active | Not Active | Not Active | Not Active | Not Active | Not Active | Not Active | – | – | – |
| CCCCc1oc2ccccc2c1C(=O)c1cc(I)c(OCCN(CC)CC)c(I)c1 [AMIODARONE] | Not Active | Not Active | – | – | Not Active | – | – | – | – | – | – | – | – |
| OCCN(CCO)c1nc(N2CCCCC2)c2nc(N(CCO)CCO)nc(N3CCCCC3)c2n1 [DIPYRIDAMOLE] | Not Active | Not Active | Not Active | Not Active | Not Active | – | – | Not Active | Not Active | Not Active | 1580 nM | – | – |
| Cc1oncc1C(=O)Nc1ccc(C(F)(F)F)cc1 [LEFLUNOMIDE] | Not Active | Not Active | Not Active | Not Active | Not Active | Not Active | Not Active | Not Active | Not Active | Not Active | – | – | – |
| c1ccc([C@H]2CN3CCSC3=N2)cc1 [LEVAMISOLE] | Not Active | Not Active | Not Active | Not Active | Not Active | Not Active | Not Active | Not Active | Not Active | Not Active | – | – | – |
| N[C@@H](Cc1ccc(O)c(O)c1)C(=O)O [LEVODOPA] | Not Active | Not Active | Not Active | Not Active | Not Active | Not Active | Not Active | Not Active | Not Active | Not Active | – | – | – |
| N[C@@H](Cc1cc(I)c(Oc2ccc(O)c(I)c2)c(I)c1)C(=O)O [LIOTHYRONINE] | – | Not Active | Not Active | Not Active | Not Active | – | – | – | – | Not Active | – | – | – |
| O=NN(CCCl)C(=O)NC1CCCCC1 [LOMUSTINE] | Not Active | Not Active | Not Active | Not Active | Not Active | Not Active | Not Active | Not Active | Not Active | Not Active | – | – | – |
| CCOC(=O)N1CCC(=C2c3ccc(Cl)cc3CCc3cccnc32)CC1 [LORATADINE] | Not Active | Not Active | – | – | Not Active | Not Active | Not Active | Not Active | Not Active | Not Active | – | – | – |
| Cn1ccnc1S [METHIMAZOLE] | Not Active | Not Active | Not Active | Not Active | Not Active | Not Active | Not Active | Not Active | Not Active | Not Active | – | – | – |
| CC[C@@H](CO)NC(=O)[C@@H]1C=C2c3cccc4[nH]cc(c34)C[C@H]2N(C)C1 [METHYLERGONOVINE] | Not Active | Not Active | – | – | Not Active | Not Active | Not Active | Not Active | Not Active | – | – | 167 nM | 57 nM |
| COc1nc(C)nc(Cl)c1NC1=NCCN1 [MOXONIDINE] | Not Active | Not Active | Not Active | Not Active | Not Active | Not Active | Not Active | Not Active | Not Active | Not Active | – | – | – |
| COc1c(C)c2c(c(O)c1C/C=C(\C)CCC(=O)O)C(=O)OC2 [MYCOPHENOLIC ACID] | Not Active | Not Active | Not Active | Not Active | Not Active | Not Active | Not Active | Not Active | Not Active | Not Active | – | – | – |
| O=c1ncn2nc(Sc3ccc(F)cc3F)ccc2c1-c1c(Cl)cccc1Cl [NEFLAMAPIMOD] | Not Active | Not Active | Not Active | Not Active | Not Active | Not Active | Not Active | Not Active | Not Active | Not Active | – | – | – |
| CN1CCN(CCCN2c3ccccc3Sc3ccc(Cl)cc32)CC1 [PROCHLORPERAZINE] | Not Active | – | Not Active | Not Active | Not Active | – | – | – | – | – | – | – | – |
| CO[C@H]1/C=C/O[C@@]2(C)Oc3c(C)c(O)c4c(O)c(c(/C=N/N5CCN(C)CC5)c(O)c4c3C2=O)NC(=O)/C(C)=C\C=C\[C@H](C)[C@H](O)[C@@H](C)[C@@H](O)[C@@H](C)[C@H](OC(C)=O)[C@@H]1C [RIFAMPIN] | Not Active | Not Active | Not Active | Not Active | Not Active | Not Active | Not Active | Not Active | Not Active | Not Active | – | – | – |
| Nc1nc2ccc(OC(F)(F)F)cc2s1 [RILUZOLE] | Not Active | Not Active | – | – | Not Active | Not Active | Not Active | Not Active | Not Active | Not Active | – | – | – |
| Cc1nc2n(c(=O)c1CCN1CCC(c3noc4cc(F)ccc34)CC1)CCCC2 [RISPERIDONE] | – | – | Not Active | Not Active | Not Active | – | – | – | – | – | – | – | – |
| C=CCC1(C(C)CCC)C(=O)NC(=O)NC1=O (centres undefined) [SECOBARBITAL] | Not Active | Not Active | Not Active | Not Active | Not Active | Not Active | Not Active | Not Active | Not Active | Not Active | – | – | – |
| CC/C(=C(\c1ccccc1)c1ccc(OCCN(C)C)cc1)c1ccccc1 [TAMOXIFEN] | – | Not Active | Not Active | Not Active | Not Active | – | – | – | – | – | – | 1070 nM | 364 nM |
| Cc1cccc(N(C)C(=S)Oc2ccc3ccccc3c2)c1 [TOLNAFTATE] | Not Active | Not Active | – | – | Not Active | Not Active | Not Active | Not Active | Not Active | Not Active | – | – | – |
| CC[C@]1(O)C[C@H]2CN(CCc3c([nH]c4ccccc34)[C@@](C(=O)OC)(c3cc4c(cc3OC)N(C=O)[C@H]3[C@@](O)(C(=O)OC)[C@H](OC(C)=O)[C@]5(CC)C=CCN6CC[C@]43[C@@H]65)C2)C1 [VINCRISTINE] | – | Not Active | Not Active | Not Active | Not Active | Not Active | Not Active | Not Active | Not Active | Not Active | – | – | – |
